We go through 39 compounds from US12692235B2, “Fused ring compound and application thereof” (WUHAN LL SCIENCE AND TECHNOLOGY DEVELOPMENT CO., LTD., priority 2019, dated 2026).

This experiment addresses T1, hP2X4 (human purinergic P2X receptor subtype 4) (Homo sapiens, UniProt Q99571).
T1 sequence (Q99571 1-404 isoform Q99571-2): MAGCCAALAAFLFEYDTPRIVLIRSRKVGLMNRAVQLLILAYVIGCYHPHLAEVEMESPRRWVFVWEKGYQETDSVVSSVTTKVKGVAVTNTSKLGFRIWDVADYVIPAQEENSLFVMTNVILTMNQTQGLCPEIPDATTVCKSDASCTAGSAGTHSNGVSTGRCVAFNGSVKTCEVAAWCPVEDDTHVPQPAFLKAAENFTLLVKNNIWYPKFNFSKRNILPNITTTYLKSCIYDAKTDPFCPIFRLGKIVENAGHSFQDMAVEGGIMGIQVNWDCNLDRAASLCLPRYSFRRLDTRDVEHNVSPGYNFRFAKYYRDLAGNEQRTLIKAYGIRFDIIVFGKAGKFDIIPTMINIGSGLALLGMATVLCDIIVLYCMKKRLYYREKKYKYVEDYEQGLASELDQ
The following applies: P2X4 IC50 (nM), HEK293 cells stably expressing hP2X4; agonist BZ-ATP 2.5 μM; FLIPR calcium.
Protocol: Cells at 400,000 cells/mL were seeded into a 384-well plate (10,000 cells/well) 18-24 h prior to the FLIPR experiment and then incubated overnight in a cell incubator. […] Each well was added with 20 μL of 0.5×Calcium 6 fluorescent dye (Molecular Devices, R8190) and then the cells were subjected to dye-loading incubation at 37° C. for 1.5 h. Each well was added with 10 μL of respective test compound (dissolved in DMSO at a concentration of 10 mM and serially diluted with buffer) or vehicle and the mixture was equilibrated for 30 min at room temperature.
`NS(=O)(=O)c1cc(NC(=O)Cc2ccccc2Cl)cc2nc(OCCO)ccc12` [Compound 66, 2-(2-chlorophenyl)-N-(2-(2-hydroxyethoxy)-5-sulfamoylquinolin-7-yl)acetamide]: the IC50 (in general, the concentration that gives 50% inhibition) was 50 to 200 nM. To `CC#Cc1ccc2c(S(N)(=O)=O)cc(NC(=O)Cc3ccccc3Cl)cc2n1` [Compound 87, 2-(2-chlorophenyl)-N-(2-(prop-1-yn-1-yl)-5-sulfamoylquinolin-7-yl)acetamide] belongs 10 to 50 nM. To `COc1nccc2c(S(N)(=O)=O)cc(NC(=O)Cc3ccc(Cl)cc3Cl)cc12` [Compound 92, 2-(2,4-dichlorophenyl)-N-(1-methoxy-5-sulfamoylisoquinolin-7-yl)acetamide] belongs 50 to 200 nM. To `NS(=O)(=O)c1cc(NC(=O)Cc2ccccc2Cl)cc2cnc(C3CC3)cc12` [Compound 21, 2-(2-chlorophenyl)-N-(3-cyclopropyl-5-sulfamoylisoquinolin-7-yl)acetamide] belongs less than 10 nM. `COc1ccc(Nc2cc3c(S(N)(=O)=O)cc(NC(=O)Cc4ccccc4Cl)cc3cn2)cc1` [Compound 81, 2-(2-chlorophenyl)-N-(3-((4-methoxyphenyl)amino)-5-sulfamoylisoquinolin-7-yl)acetamide]: the IC50 is 200 to 5000 nM.

`NS(=O)(=O)c1cc(NC(=O)Cc2ccccc2Cl)cc2c(=O)[nH]ccc12` [Compound 43, 2-(2-chlorophenyl)-N-(1-oxo-5-sulfamoyl-1,2-dihydroisoquinolin-7-yl)acetamide]: the IC50 lay within 200 to 5000 nM. For the compound `NS(=O)(=O)c1cc(NC(=O)Cc2ccccc2Cl)cc2c(OC(F)(F)F)nccc12` [Compound 60, 2-(2-chlorophenyl)-N-(5-sulfamoyl-1-(trifluoromethoxy)isoquinolin-7-yl)acetamide], the concentration for half-maximal inhibition (IC50) was 50 to 200 nM. To `NS(=O)(=O)c1cc(NC(=O)Cc2ccccc2Cl)cc2c1CCN(C(=O)C1CC1)C2` [Compound 108] belongs less than 10 nM; to `NS(=O)(=O)c1cc(NC(=O)Cc2ccccc2Cl)cc2cnccc12` [Compound 6], 10 to 50 nM; to `NS(=O)(=O)c1cc(NC(=O)Cc2ccccc2Cl)cc2c1CCN(Cc1ccccc1)C2` [Compound 110, N-(2-benzyl-5-sulfamoyl-1,2,3,4-tetrahydroisoquinolin-7-yl)-2-(2-chlorophenyl)acetamide], 200 to 5000 nM. To `CC(C)c1nccc2c(S(N)(=O)=O)cc(NC(=O)Cc3ccccc3Cl)cc12` [Compound 24, 2-(2-chlorophenyl)-N-(1-isopropyl-5-sulfamoylisoquinolin-7-yl)acetamide] belongs less than 10 nM; to `NS(=O)(=O)c1cc(NC(=O)Cc2ccccc2Cl)cc2nc(-n3cccn3)ccc12` [Compound 49, N-(2-(1H-pyrazol-1-yl)-5-sulfamoylquinolin-7-yl)-2-(2-chlorophenyl)acetamide], 50 to 200 nM.

`NS(=O)(=O)c1cc(NC(=O)Cc2ccccc2Cl)cc2c1CCNC2` [Compound 98, 2-(2-chlorophenyl)-N-(5-sulfamoyl-1,2,3,4-tetrahydroisoquinolin-7-yl)acetamide]: the IC50 is 200 to 5000 nM. Consider `CC(C)N1CCc2c(cc(NC(=O)Cc3ccccc3Cl)cc2S(N)(=O)=O)C1` [Compound 113, 2-(2-chlorophenyl)-N-(2-isopropyl-5-sulfamoyl-1,2,3,4-tetrahydroisoquinolin-7-yl)acetamide], for which the IC50 lay in the range of 50 to 200 nM. To `NS(=O)(=O)c1cc(NC(=O)Cc2ccccc2Cl)cc2c(OCc3ccc(F)cc3)nccc12` [Compound 32, 2-(2-chlorophenyl)-N-(1-((4-fluorobenzyl)oxo)-5-sulfamoylisoquinolin-7-yl)acetamide] belongs 10 to 50 nM. To `COc1ccc2c(S(N)(=O)=O)cc(NC(=O)Cc3ccccc3Cl)cc2n1` [Compound 65, 2-(2-chlorophenyl)-N-(2-methoxy-5-sulfamoylquinolin-7-yl)acetamide] belongs 10 to 50 nM. To `COc1nccc2c(S(N)(=O)=O)cc(NC(=O)Cc3c(Cl)ccc(F)c3O)cc12` [Compound 63, 2-(6-chloro-3-fluoro-2-hydroxyphenyl)-N-(1-methoxy-5-sulfamoylisoquinolin-7-yl)acetamide] belongs 200 to 5000 nM. For `Cc1ccc(N2CCc3c(cc(NC(=O)Cc4ccccc4Cl)cc3S(N)(=O)=O)C2)nc1` [Compound 121, 2-(2-chlorophenyl)-N-(2-(5-methylpyridin-2-yl)-5-sulfamoyl-1,2,3,4-tetrahydroisoquinoline-7-yl)acetamide], the IC50 lay in the range of 50 to 200 nM. For the compound `NS(=O)(=O)c1cc(NC(=O)Cc2ccccc2Cl)cc2c1CCN(CC1CC1)C2` [Compound 111], the concentration for half-maximal inhibition (IC50) lay in the range of 200 to 5000 nM. To `NS(=O)(=O)c1cc(NC(=O)Cc2ccccc2Cl)cc2nc(N3CCOCC3)ccc12` [Compound 68, 2-(2-chlorophenyl)-N-(2-morpholino-5-sulfamoylquinolin-7-yl)acetamide] belongs 50 to 200 nM. To `NS(=O)(=O)c1cc(NC(=O)Cc2ccccc2Cl)cc2c(OC(F)F)nccc12` [Compound 28, 2-(2-chlorophenyl)-N-(1-(difluoromethoxy)-5-sulfamoylisoquinolin-7-yl)acetamide] belongs less than 10 nM. To `CC(C)Oc1nccc2c(S(N)(=O)=O)cc(NC(=O)Cc3ccccc3Cl)cc12` [Compound 9, 2-(2-chlorophenyl)-N-(1-isopropoxy-5-sulfamoylisoquinolin-7-yl)acetamide] belongs 10 to 50 nM. In the case of `COc1nccc2c(S(N)(=O)=O)cc(NC(=O)Cc3ccccc3C#N)cc12` [Compound 64, 2-(2-cyanophenyl)-N-(1-methoxy-5-sulfamoylisoquinolin-7-yl)acetamide], the IC50 is 200 to 5000 nM. To `CN1CCN(c2ccc3c(S(N)(=O)=O)cc(NC(=O)Cc4ccccc4Cl)cc3n2)CC1=O` [Compound 70, 2-(2-chlorophenyl)-N-(2-(4-methyl-3-carbonylpiperazin-1-yl)-5-sulfamoylquinolin-7-yl)acetamide] belongs 50 to 200 nM. Regarding `NS(=O)(=O)c1cc(NC(=O)Cc2ccccc2Cl)cc2c1CCN(c1ccc(Cl)cn1)C2` [Compound 116, 2-(2-chlorophenyl)-N-(2-(5-chloropyridin-2-yl)-5-sulfamoyl-1,2,3,4-tetrahydroisoquinolin-7-yl)acetamide], the half-inhibitory concentration (IC50) lay within 50 to 200 nM. To `N#Cc1nccc2c(S(N)(=O)=O)cc(NC(=O)Cc3ccccc3Cl)cc12` [Compound 44, 2-(2-chlorophenyl)-N-(1-cyano-5-sulfamoylisoquinolin-7-yl)acetamide] belongs 200 to 5000 nM. To `COc1ccc(Oc2ccc3c(S(N)(=O)=O)cc(NC(=O)Cc4ccccc4Cl)cc3n2)cc1` [Compound 72, 2-(2-chlorophenyl)-N-(2-(4-methoxyphenoxy)-5-sulfamoylquinolin-7-yl)acetamide] belongs 50 to 200 nM. To `COc1ccc(Oc2nccc3c(S(N)(=O)=O)cc(NC(=O)Cc4ccccc4Cl)cc23)cc1` [Compound 35, 2-(2-chlorophenyl)-N-(1-(4-methoxyphenoxy)-5-sulfamoylisoquinolin-7-yl)acetamide] belongs 10 to 50 nM; to `NS(=O)(=O)c1cc(NC(=O)Cc2ccccc2Cl)cc2c(OC3CCCC3)nccc12` [Compound 13], 10 to 50 nM; to `NS(=O)(=O)c1cc(NC(=O)Cc2ccccc2Cl)cc2c(F)cncc12` [Compound 47, 2-(2-chlorophenyl)-N-(4-fluoro-8-sulfamoylisoquinolin-6-yl)acetamide], 50 to 200 nM. In the case of `NS(=O)(=O)c1cc(NC(=O)Cc2ccccc2Cl)cc2nc(C3CC3)ccc12` [Compound 85, 2-(2-chlorophenyl)-N-(2-cyclopropyl-5-sulfamoylquinolin-7-yl)acetamide], the concentration for half-maximal inhibition (IC50) is 200 to 5000 nM.

Regarding `C#Cc1ccc2c(S(N)(=O)=O)cc(NC(=O)Cc3ccccc3Cl)cc2n1` [Compound 86, 2-(2-chlorophenyl)-N-(2-ethynyl-5-sulfamoylquinolin-7-yl)acetamide], the concentration for half-maximal inhibition (IC50) is 200 to 5000 nM. To `NS(=O)(=O)c1cc(NC(=O)Cc2ccccc2Cl)cc2c1CCN(C(=O)C1CCC1)C2` [Compound 107] belongs 10 to 50 nM. To `COc1nccc2c(S(N)(=O)=O)cc(NC(=O)Cc3c(F)cccc3Cl)cc12` [Compound 26, 2-(2-chloro-6-fluorophenyl)-N-(1-methoxy-5-sulfamoylisoquinolin-7-yl)acetamide] belongs less than 10 nM.

Consider `CN(C)c1ccc2c(S(N)(=O)=O)cc(NC(=O)Cc3ccccc3Cl)cc2n1` [Compound 88, 2-(2-chlorophenyl)-N-(2-(dimethylamino)-5-sulfamoylquinolin-7-yl)acetamide], for which the half-maximal inhibitory concentration (IC50) was in the range of 50 to 200 nM. To `CN1CCN(c2cc3c(S(N)(=O)=O)cc(NC(=O)Cc4ccccc4Cl)cc3cn2)CC1` [Compound 79, 2-(2-chlorophenyl)-N-(3-(4-methylpiperazin-1-yl)-5-sulfamoylisoquinolin-7-yl)acetamide] belongs 50 to 200 nM; to `NS(=O)(=O)c1cc(NC(=O)Cc2ccccc2Cl)cc2cnc(N3CCOCC3)cc12` [Compound 78, 2-(2-chlorophenyl)-N-(3-morpholino-5-sulfamoylisoquinolin-7-yl)acetamide], 50 to 200 nM; to `CN1CCN(c2ccc3c(S(N)(=O)=O)cc(NC(=O)Cc4ccccc4Cl)cc3n2)CC1` [Compound 69, 2-(2-chlorophenyl)-N-(2-(4-methylpiperazin-1-yl)-5-sulfamoylquinolin-7-yl)acetamide], 200 to 5000 nM. To `NS(=O)(=O)c1cc(NC(=O)Cc2ccccc2Cl)cc2cnc(C(F)(F)F)cc12` [Compound 19, 2-(2-chlorophenyl)-N-(−5-sulfamoyl-3-(trifluoromethyl)isoquinolin-7-yl)acetamide] belongs less than 10 nM.
